Tests used:
[1] = tested on: baseline bacterial pathogen in cUTI or AP; test: ZEUS Phase 2/3 noninferiority trial, efficacy at TOC in hospitalized adults; assay type: in vivo, human
Method: Oral step-down therapy was prohibited (FIG. 4).
A post-hoc analysis using pulsed-field gel electrophoresis (PFGE) was performed to molecularly type all baseline and TOC pathogens (both treatment arms), in order to confirm microbiological eradication/persistence; a total of 20 post-baseline pathogens were identified as unique, unrelated strains compared to baseline.

[2] = ZEUS Phase 2/3 trial, safety (adverse events)
[3] = Bacteremia, m-MITT (N1 19 ZTI-01, 13 P-T)
[4] = CE-TOC (N1 199 ZTI-01, 196 P-T)
[5] = ME-TOC (N1 155 ZTI-01, 145 P-T)
[6] = Original Analysis, ME-TOC (N1 155 ZTI-01, 145 P-T)
[7] = Original Analysis, m-MITT (N1 184 ZTI-01, 178 P-T)
[8] = Post-hoc Analysis Using PFGE Typing, ME-TOC (N1 155 ZTI-01, 145 P-T)
[9] = Post-hoc Analysis Using PFGE Typing, m-MITT (N1 184 ZTI-01, 178 P-T)
[10] = SIRS, m-MITT (N1 62 ZTI-01, 52 P-T)
[11] = m-MITT (N1 184 ZTI-01, 178 P-T)
[12] = MITT Safety Population (n = 233 ZTI-01, n = 231 P-T)

With `C[C@@H]1O[C@@H]1P(=O)(O)O` [ZTI-01, fosfomycin] the “Clinical Response at TOC: Eradication” value [1, 3] was 15 (78.9%) n (%), the “Clinical Response at TOC: Indeterminate” value [1, 3] was 2 (10.5%) n (%) and the “Clinical Response at TOC: Persistence” value [1, 3] was 2 (10.5%) n (%). For the same compound, the “Overall Response at TOC: Eradication” value [1, 3] was 9 (47.4%) n (%), the “Overall Response at TOC: Indeterminate” value [1, 3] was 3 (15.8%) n (%) and the “Overall Response at TOC: Persistence” value [1, 3] was 7 (36.8%) n (%). For the same compound, the “Per-patient Microbiological Response at TOC: Eradication” value [1, 3] was 9 (47.4%) n (%), the “Per-patient Microbiological Response at TOC: Indeterminate” value [1, 3] was 4 (21.2%) n (%) and the “Per-patient Microbiological Response at TOC: Persistence” value [1, 3] was 6 (31.6%) n (%). The “Clinical Response at TOC: Cure” value [1, 4] was 188 (94.5%) n (%), the “Clinical Response at TOC: Failure” value [1, 4] was 11 (5.5%) n (%) and the “Clinical Response at TOC: Treatment Difference (ZTI-01 vs P-T)” value ([1]; CE-TOC, 95% CI (−3.7, 6.9)) was 1.6%. For the same compound, the “Clinical Response at TOC: Cure” value [1, 5] was 148 (95.5%) n (%), the “Clinical Response at TOC: Failure” value [1, 5] was 7 (4.5%) n (%) and the “Clinical Response at TOC: Treatment Difference (ZTI-01 vs P-T)” value ([1]; ME-TOC, 95% CI (−3.5, 8.3)) was 2.4%. For the same compound, the “Clinical Response at TOC: Cure” value ([1]; MITT (N1 233 ZTI-01, 231 P-T)) was 211 (90.6%) n (%), the “Clinical Response at TOC: Failure” value ([1]; MITT (N1 233 ZTI-01, 231 P-T)) was 11 (4.7%) n (%) and the “Clinical Response at TOC: Indeterminate” value ([1]; MITT (N1 233 ZTI-01, 231 P-T)) was 11 (4.7%) n (%). The “Clinical Response at TOC: Treatment Difference (ZTI-01 vs P-T)” value ([1]; MITT, 95% CI (−6.8, 4.4)) was −1.2%, the “Microbiological Response at TOC: Eradication” value [1, 6] was 109 (70.3%) n (%) and the “Microbiological Response at TOC: Persistence” value [1, 6] was 46 (29.7%) n (%). For the same compound, the “Microbiological Response at TOC: Eradication” value [1, 7] was 121 (65.8%) n (%), the “Microbiological Response at TOC: Indeterminate” value [1, 7] was 13 (7.1%) n (%) and the “Microbiological Response at TOC: Persistence” value [1, 7] was 50 (27.2%) n (%). For the same compound, the “Microbiological Response at TOC: Eradication” value [1, 8] was 117 (75.5%) n (%), the “Microbiological Response at TOC: Persistence” value [1, 8] was 38 (24.5%) n (%) and the “Microbiological Response at TOC: Eradication” value [1, 9] was 130 (70.7%) n (%). The “Microbiological Response at TOC: Indeterminate” value [1, 9] was 13 (7.1%) n (%), the “Microbiological Response at TOC: Persistence” value [1, 9] was 41 (22.3%) n (%) and the “Clinical Response at TOC: Eradication” value [1, 10] was 55 (88.7%) n (%). The “Clinical Response at TOC: Indeterminate” value [1, 10] was 4 (6.5%) n (%), the “Clinical Response at TOC: Persistence” value [1, 10] was 3 (4.8%) n (%) and the “Overall Response at TOC: Eradication” value [1, 10] was 41 (66.1%) n (%). For the same compound, the “Overall Response at TOC: Indeterminate” value [1, 10] was 5 (8.1%) n (%), the “Overall Response at TOC: Persistence” value [1, 10] was 16 (25.8%) n (%) and the “Patient Microbiological response at TOC: Eradication” value [1, 10] was 41 (66.1%) n (%). The “Patient Microbiological response at TOC: Indeterminate” value [1, 10] was 7 (11.3%) n (%), the “Patient Microbiological response at TOC: Persistence” value [1, 10] was 14 (22.6%) n (%) and the “Clinical Response at TOC: Cure” value [1, 11] was 167 (90.8%) n (%). The “Clinical Response at TOC: Failure” value [1, 11] was 9 (4.9%) n (%), the “Clinical Response at TOC: Indeterminate” value [1, 11] was 8 (4.3%) n (%) and the “overall success rates at TOC” value ([1]; m-MITT population, clinical cure plus microbiologic eradication, 6 g ZTI-01 q8h or 4.5 g P-T q8h IV) was 64.7%. The “difference in overall success rate (ZTI-01 vs P-T)” value ([1]; m-MITT, TOC, 95% CI −0.4, 20.8) was 10.2%, the “Clinical Response at TOC: Treatment Difference (ZTI-01 vs P-T)” value ([1]; m-MITT, 95% CI (−7.2, 5.6)) was −0.8% and the “overall success rates using unique pathogen strains typed by PFGE” value ([1]; post-hoc analysis, m-MITT, TOC) was 69.0%. The “difference in overall success rate using PFGE typing (ZTI-01 vs P-T)” value ([1]; post-hoc, 95% CI 1.3, 22.1) was 11.7%, the “effective (patients with AP)” value ([1]; preferred dosing regimen 6 g tid) was 68% and the “Any AEs” value [2, 12] was 99 (42.5%) n (%). For the same compound, the “Any TEAEs” value [2, 12] was 98 (42.1%) n (%), the “Drug-related SAE” value [2, 12] was 1 (0.4%) n (%) and the “Drug-related TEAEs” value [2, 12] was 48 (20.6%) n (%). For the same compound, the SAEs [2, 12] was 5 (2.1%) n (%), the “Serious TEAEs leading to study drug discontinuation” value [2, 12] was 0 (0%) n (%) and the “TEAEs leading to study drug discontinuation” value [2, 12] was 7 (3.0%) n (%). The “TEAEs: Mild” value [2, 12] was 84 (36.1%) n (%), the “TEAEs: Moderate” value [2, 12] was 35 (15.0%) n (%) and the “TEAEs: Severe” value [2, 12] was 5 (2.1%) n (%). For the same compound, the “SAE related to study drug (1 in each treatment group)” value ([2]; in vivo) was “hypokalemia”, the tolerability ([2]; majority of AEs mild to moderate) was “generally well tolerated” and the “treatment-emergent adverse events (TEAEs) observed, % of patients” value ([2]; safety population (n=464)) was 42.1%.
